Test results from US5767096A, “Bromotiacumicin compounds” (Abbott Laboratories, priority 1996, dated 1998).
≈ marks a conversion by molar mass, not a printed value. Where two headings read alike, the source gives them in different places.

How the values were obtained:
Format in all cases: cell-based
[1] = system: Enterococcus faecium ATCC 8043; test: In vitro antibiotic activity (MIC), agar dilution, brain heart infusion agar; conditions: ~10^4 organisms per spot, 37° C., ~20 hours
Protocol: (§1) Optical rotations were measured on a Perkin-Elmer Model 241 polarimeter in a 10 cm cell. Fast atom bombardment mass spectra were measured on a Kratos MS-50 mass spectrometer. Ultraviolet spectra were recorded on a Perkin-Elmer Lambda 3B UV-visible spectrophotometer and infrared spectra on a Nicolet model 60SX FT-IR attached to a Nicolet computer. NMR spectra were acquired on either a General Electric GN500 or GN300 spectrometer. […] Rf values reported were acquired on Analtech TLC plates developed with chloroform:methanol (9:1, v:v) and were visualized using ceric sulfate spray reagent. Melting points were determined on a Hoover Unimelt and are reported uncorrected. Minimal inhibitory concentrations were determined by twofold agar dilution. Brain heart infusion agar was used for aerobes and Wilkins-Chalgren agar for anaerobes.
(§2) For primary screening of compounds of the invention against selected aerobic microorganisms, minimal inhibitory concentrations (MICs) were determined by the following agar dilution method: Series of two-fold dilutions of the test compounds were added to brain heart infusion agar. The agar plates were inoculated with approximately 10^4 organisms per spot of each of the organisms to be tested. These inoculated agar plates were then incubated at 37° C. for approximately 20 hours. The MICs were determined as the minimal concentration of test compound (in […]) that inhibited visible growth.

[2] = system: Streptococcus pyogenes EES61; test: as above; conditions: ~10^4 organisms per spot, 37° C., ~20 hours
Protocol: as §1, §2

[3] = system: Staphylococcus aureus ATCC 6538P; test: as above; conditions: ~10^4 organisms per spot, 37° C., ~20 hours
Protocol: as §1, §2

[4] = system: Staphylococcus epidermidis 3519; test: as above; conditions: ~10^4 organisms per spot, 37° C., ~20 hours
Protocol: as §1, §2

Escherichia coli JUHL = test: as above; conditions: ~10^4 organisms per spot, 37° C., ~20 hours
Protocol: as §1, §2

[5] = system: Clostridium perfringes ATCC 13124; test: microbe, parasite or virus in culture; conditions: anaerobe, ~10^5 organisms per spot, 37° C., ~48 hours
Protocol: as §1, with “Fast” for “Optical rotations were measured on a Perkin-Elmer Model 241 polarimeter in a 10 cm cell. Fast”
as §2, with “anaerobic bacteria such as Clostridium,” for “selected aerobic microorganisms,”, “Wilkins-Chalgren” for “brain heart infusion”, “10^5” for “10^4”, “The” for “These”, “48” for “20”

[6] = system: Clostridium difficile 2532; test: In vitro antibiotic activity (MIC) against anaerobes, agar dilution, Wilkins-Chalgren agar; conditions: anaerobe, ~10^5 organisms per spot, 37° C., ~48 hours
Protocol: as §1
as §2, with “anaerobic bacteria such as Clostridium,” for “selected aerobic microorganisms,”, “Wilkins-Chalgren” for “brain heart infusion”, “10^5” for “10^4”, “The” for “These”, “48” for “20”

[7] = system: Clostridium difficile ATCC 17857; test: as above; conditions: anaerobe, ~10^5 organisms per spot, 37° C., ~48 hours
Protocol: as §1
as §2, with “anaerobic bacteria such as Clostridium,” for “selected aerobic microorganisms,”, “Wilkins-Chalgren” for “brain heart infusion”, “10^5” for “10^4”, “The” for “These”, “48” for “20”

[8] = system: Clostridium difficile ATCC 9689; test: as above; conditions: anaerobe, ~10^5 organisms per spot, 37° C., ~48 hours
Protocol: as §1
as §2, with “anaerobic bacteria such as Clostridium,” for “selected aerobic microorganisms,”, “Wilkins-Chalgren” for “brain heart infusion”, “10^5” for “10^4”, “The” for “These”, “48” for “20”

[9] = system: Bacteriodes thetaiotaomicron ATCC 29741; test: as above; conditions: anaerobe, ~10^5 organisms per spot, 37° C., ~48 hours
Protocol: as §1
as §2, with “anaerobic bacteria such as Clostridium,” for “selected aerobic microorganisms,”, “Wilkins-Chalgren” for “brain heart infusion”, “10^5” for “10^4”, “The” for “These”, “48” for “20”

[10] = system: Bacteroides fragilis ATCC 25285; test: as above; conditions: ATCC25285, anaerobe, ~10^5 organisms per spot, 37° C., ~48 hours
Protocol: as §1
as §2, with “anaerobic bacteria such as Clostridium,” for “selected aerobic microorganisms,”, “Wilkins-Chalgren” for “brain heart infusion”, “10^5” for “10^4”, “The” for “These”, “48” for “20”

bacterial pathogens = test: In vitro activity against bacterial pathogens (summary in words); conditions: from Table 2
Protocol: Optical rotations were measured on a Perkin-Elmer Model 241 polarimeter in a 10 cm cell. Fast atom bombardment mass spectra were measured on a Kratos MS-50 mass spectrometer. Ultraviolet spectra were recorded on a Perkin-Elmer Lambda 3B UV-visible spectrophotometer and infrared spectra on a Nicolet model 60SX FT-IR attached to a Nicolet computer. NMR spectra were acquired on either a General Electric GN500 or GN300 spectrometer. NMR spectral data are reported in Table 1 (following Example 6 below). Rf values reported were acquired on Analtech TLC plates developed with chloroform:methanol (9:1, v:v) and were visualized using ceric sulfate spray reagent. Melting points were determined on a Hoover Unimelt and are reported uncorrected. Minimal inhibitory concentrations were determined by twofold agar dilution. Brain heart infusion agar was used for aerobes and Wilkins-Chalgren agar for anaerobes.
For primary screening of compounds of the invention against selected aerobic microorganisms, minimal inhibitory concentrations (MICs) were determined by the following agar dilution method: Series of two-fold dilutions of the test compounds were added to brain heart infusion agar. […] The MICs were determined as the minimal concentration of test compound (in […]) that inhibited visible growth. […]

[11] = Enterococcus faecium, ATCC8043, read-out: MIC
[12] = Streptococcus pyogenes, EES61, read-out: MIC
[13] = Staphylococcus aureus, ATCC6538P, read-out: MIC
[14] = Staphylococcus epidermidis, 3519, read-out: MIC
[15] = Escherichia coli, read-out: MIC
[16] = Clostridium, ATCC13124, read-out: MIC
[17] = Clostridioides difficile, 2532, read-out: MIC
[18] = Clostridioides difficile, ATCC17857, read-out: MIC
[19] = Clostridioides difficile, ATCC9689, read-out: MIC

Row | Compound | MIC [1] [µg/mL] | MIC [2] [µg/mL] | MIC [3] [µg/mL] | MIC [4] [µg/mL] | MIC (Escherichia coli JUHL) [µg/mL] | MIC [5] | MIC [6] [µg/mL] | MIC [7] [µg/mL] | MIC [8] [µg/mL] | MIC [1, 11] [µg/mL] | MIC [2, 12] [µg/mL] | MIC [3, 13] [µg/mL] | MIC [4, 14] [µg/mL] | MIC (Escherichia coli JUHL; [15]) [µg/mL] | MIC [5, 16] [µg/mL] | MIC [6, 17] [µg/mL] | MIC [9] [µg/mL] | MIC [7, 18] [µg/mL] | MIC [10] [µg/mL] | MIC [8, 19] [µg/mL] | other results
1 | 4'",6'"-didechloro-4'"-bromotiacumicin B [Ex. 5] | 12.5 | 25 | 6.2 | 12.5 | > 200 | <= 0.06 μg/mL | 0.5 | 0.25 | 0.12 | – | – | – | – | – | – | – | – | – | – | – | –
2 | 4'",6'"-didechloro-4'"-bromotiacumicin C [Ex. 6] | 25 | 50 | 50 | 50 | > 200 | 0.06 µg/mL | 2 | 1 | 0.5 | – | – | – | – | – | – | – | – | – | – | – | –
3 | CCc1c(Br)c(O)c(Cl)c(O)c1C(=O)O[C@H]1[C@H](O)[C@H](OC)[C@H](OC/C2=C\C=C\C[C@H](O)/C(C)=C/[C@H](CC)[C@@H](O[C@@H]3OC(C)(C)[C@@H](OC(=O)C(C)C)[C@H](O)[C@@H]3O)/C(C)=C/C(C)=C/C[C@@H]([C@@H](C)O)OC2=O)O[C@@H]1C [Ex. 3, 6'"-dechloro-6'"-bromotiacumicin B] | – | – | – | – | – | – | – | – | – | 6.2 (≈ 5.62 µM) | 6.2 (≈ 5.62 µM) | 6.2 (≈ 5.62 µM) | 6.2 (≈ 5.62 µM) | > 200 | 0.03 (≈ 0.0272 µM) | 0.06 (≈ 0.0544 µM) | > 128 | 0.06 (≈ 0.0544 µM) | > 128 | 0.06 (≈ 0.0544 µM) | potency among compounds of this invention (bacterial pathogens): the most potent of the compounds of this invention; potency compared with tiacumicin B (bacterial pathogens): quite comparable to tiacumicin B
4 | CCc1c(Br)c(O)c(Cl)c(O)c1C(=O)O[C@H]1[C@H](O)[C@H](OC)[C@H](OC/C2=C\C=C\C[C@H](O)/C(C)=C/[C@H](CC)[C@@H](O[C@@H]3OC(C)(C)[C@@H](OC(=O)C(C)C)[C@H](O)[C@@H]3O)/C(C)=C/C(C)=C/C[C@@H](C(C)=O)OC2=O)O[C@@H]1C [Ex. 4, 6'"-dechloro-6'"-bromo-18-ketotiacumicin B] | – | – | – | – | – | – | – | – | – | 50 (≈ 45.4 µM) | 50 (≈ 45.4 µM) | 50 (≈ 45.4 µM) | 100 (≈ 90.9 µM) | > 200 | 0.015 (≈ 0.0136 µM) | 1 (≈ 0.909 µM) | > 128 | 0.25 (≈ 0.227 µM) | > 128 | 0.25 (≈ 0.227 µM) | –
